In paper PMC3656107, “Polymorphisms in the F8 Gene and MHC-II Variants as Risk Factors for the Development of Inhibitory Anti-Factor VIII Antibodies during the Treatment of Hemophilia A: A Computational Assessment” (PLoS Computational Biology, 2013):
Values joined by “and” are separate entries in the source; they are usually repeats but may differ in a detail not shown here. Equal values may be shown once.

Key:
MHC-II DRB1*03:01 [1] = biological target: T1, MHC-II DRB1*03:01 (Homo sapiens, UniProt P01903+P01911, A100K/A102G/A103R/A169T/F55Y/I96L/K41T/L162R/M171V/P40S/Q125H/Q178H/Q39Y/R42S/S66N/T106N/T262R/W38E/Y61H); assay: Cell-free REVEAL class II binding assay; conditions: signal of test peptide as percentage of allele-specific positive control peptide, fluorescence, conformation-specific monoclonal antibody
From the text: (§1) We used a proprietary high throughput, REVEAL binding assay (ProImmune, www.proimmune.com) to estimate the binding of individual test peptides to the following MHC-II variants: DRB1*03:01, DRB1*04:01, DRB1*07:01, DRB1*11:01, DRB1*15:01 and DRB1*15:03 [28]. Detection of a peptide binding to each MHC-II protein is based on the presence or absence of the native conformation of the MHC-peptide complex. The peptide-MHC-II complex is detected by an increase in a fluorescence signal due to the binding of a specific monoclonal antibody. Each test-peptide is given a score relative to a positive control peptide, which is a known T-cell epitope for that MHC-II molecule. The score is reported quantitatively as a percentage of the signal generated by the test peptide compared with the positive control peptide. Assay performance is evaluated by including in each set of measurements an intermediate control peptide which is known to bind the MHC-II molecule but with a lower affinity than the positive control peptide. Note that the positive control peptide used to determine the binding score is different from the positive control peptides depicted in the figures, which are known T-cell epitopes identified in the FVIII molecule.

MHC-II DRB1*04:01 [2] = biological target: T2, MHC-II DRB1*04:01 (Homo sapiens, UniProt P01903+P01911, A100K/A169T/F76Y/I96L/K127E/L162R/M171V/N62H/P40V/Q125Y/R42H/S133A/S149N/S66Y/V115G/V209L/W38E); assay: Cell-free REVEAL class II binding assay; conditions: signal of test peptide as percentage of allele-specific positive control peptide, fluorescence, conformation-specific monoclonal antibody
From the text: as §1

MHC-II DRB1*07:01 [3] = biological target: T3, MHC-II DRB1*07:01 (Homo sapiens, UniProt P01903+P01911, A100R/A102G/A103Q/D57E/D86V/E43K/F76Y/K127E/L162R/M171V/P40G/Q125H/Q99D/R33Q/R42Y/R54Q/S133A/S66F/T210M/V115G/Y107V/Y59L/Y89S); assay: Cell-free REVEAL class II binding assay; conditions: signal of test peptide as percentage of allele-specific positive control peptide, fluorescence, conformation-specific monoclonal antibody
From the text: as §1

MHC-II DRB1*11:01 [4] = biological target: T4, MHC-II DRB1*11:01 (Homo sapiens, UniProt P01903+P01911, A100R/A169T/A87E/I96F/K41T/L162R/M171V/P40S/Q125H/Q178H/Q39Y/Q99D/R42S/S66Y/T262R/V115G/W38E); assay: Cell-free REVEAL class II binding assay; conditions: signal of test peptide as percentage of allele-specific positive control peptide, fluorescence, conformation-specific monoclonal antibody
From the text: as §1

MHC-II DRB1*15:01 [5] = biological target: T5, MHC-II DRB1*15:01 (Homo sapiens, UniProt P01903+P01911); assay: Cell-free REVEAL class II binding assay; conditions: signal of test peptide as percentage of allele-specific positive control peptide, fluorescence, conformation-specific monoclonal antibody
T5 construct: purchased ProImmune
From the text: as §1

MHC-II DRB1*15:03 [6] = biological target: T6, MHC-II DRB1*15:03 (Homo sapiens, UniProt P01903+P01911, Y59H); assay: Cell-free REVEAL class II binding assay; conditions: signal of test peptide as percentage of allele-specific positive control peptide, fluorescence, conformation-specific monoclonal antibody
T6 construct: purchased ProImmune
From the text: as §1

MHC-II DRB1*03:01 [7] = biological target: T1, MHC-II DRB1*03:01; assay: Cell-free REVEAL class II stability assay; conditions: half-life of peptide-MHC-II complex (h, capped at 120) x Binding Score / 100, conformational ELISA
Procedure: (§2) We measured the half-life of each peptide-MHC-II complex using REVEAL peptide-MHC affinity assays developed by ProImmune Ltd. (Oxford, UK). On-rates of peptides were measured over a 96-hr period at 10°C. A unique positive control peptide was used for each MHC-II allele. Samples of assembling peptide-MHC complexes were taken at defined time points and snap-frozen in liquid nitrogen prior to analysis. Assembly of peptide-MHC complexes was detected using a conformational ELISA involving an anti-HLA antibody. On-rates were calculated by fitting data to a one-phase association curve: [drawing 1] To determine the off-rates of the peptides, samples of dissociating complexes were taken at defined time points and frozen in liquid nitrogen prior to analysis. Percent denaturation of peptide-MHC complexes was also detected using a conformational ELISA. Off-rates were calculated by fitting data to a one-phase dissociation curve: [drawing 2] On- and off-rate half-life values (t1/2) were calculated from the rate constant (k) using the following equation: [drawing 3] To obtain a normalized stability score, the half-life values were multiplied by the Binding Score (see above) and divided by 100.

MHC-II DRB1*04:01 [8] = biological target: T2, MHC-II DRB1*04:01; assay: Cell-free REVEAL class II stability assay; conditions: half-life of peptide-MHC-II complex (h, capped at 120) x Binding Score / 100, conformational ELISA
Procedure: as §2

MHC-II DRB1*07:01 [9] = biological target: T3, MHC-II DRB1*07:01; assay: Cell-free REVEAL class II stability assay; conditions: half-life of peptide-MHC-II complex (h, capped at 120) x Binding Score / 100, conformational ELISA
Procedure: as §2

MHC-II DRB1*11:01 [10] = biological target: T4, MHC-II DRB1*11:01; assay: Cell-free REVEAL class II stability assay; conditions: half-life of peptide-MHC-II complex (h, capped at 120) x Binding Score / 100, conformational ELISA
Procedure: as §2

MHC-II DRB1*15:01 [11] = biological target: T5, MHC-II DRB1*15:01; assay: Cell-free REVEAL class II stability assay; conditions: half-life of peptide-MHC-II complex (h, capped at 120) x Binding Score / 100, conformational ELISA
Procedure: as §2

MHC-II DRB1*15:03 [12] = biological target: T6, MHC-II DRB1*15:03; assay: Cell-free REVEAL class II stability assay; conditions: half-life of peptide-MHC-II complex (h, capped at 120) x Binding Score / 100, conformational ELISA
Procedure: as §2

T1 sequence (P01903 26-254 limits assumed, other chains not shown): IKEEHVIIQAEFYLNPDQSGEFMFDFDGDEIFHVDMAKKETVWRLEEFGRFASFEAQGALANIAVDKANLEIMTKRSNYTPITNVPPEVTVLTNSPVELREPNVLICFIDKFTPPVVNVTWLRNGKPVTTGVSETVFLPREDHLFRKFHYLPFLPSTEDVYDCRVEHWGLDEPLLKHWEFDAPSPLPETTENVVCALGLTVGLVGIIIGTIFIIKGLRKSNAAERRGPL
T6 sequence (P01903 26-254, other chains not shown): as the sequence (P01903 26-254 limits assumed, other chains not shown) above
T4 sequence (P01903 26-254 limits assumed, other chains not shown): as above

Row | Sequence | Binding Score (MHC-II DRB1*03:01 [1]) | Binding Score (MHC-II DRB1*04:01 [2]) | Binding Score (MHC-II DRB1*07:01 [3]) | Binding Score (MHC-II DRB1*11:01 [4]) | Binding Score (MHC-II DRB1*15:01 [5]) | Binding Score (MHC-II DRB1*15:03 [6]) | Stability Index (MHC-II DRB1*03:01 [7]) | Stability Index (MHC-II DRB1*04:01 [8]) | Stability Index (MHC-II DRB1*07:01 [9]) | Stability Index (MHC-II DRB1*11:01 [10]) | Stability Index (MHC-II DRB1*15:01 [11]) | Stability Index (MHC-II DRB1*15:03 [12])
1 | AVGVSYWKASEGAEY [synthetic wild type FVIII 15 mer peptide] | 0.0% | 2.0% | 0.0% | 0.3% | 17.0% | 0.1% | 0.0 | 0.4 | 0.0 | 0.0 | 1.0 | 0.0
2 | IFNPPIIARYIRLHP [synthetic wild type FVIII 15 mer peptide] | 0.7% | 1.7% | 0.0% | 61.5% | 1224.5% | 3.8% | 0.0 | 0.0 | 0.0 | 6.3 | 1469.4 | 4.5
3 | TVEDGPTKSDPRCLT [synthetic wild type FVIII 15 mer peptide] | 0.2% | 0.2% | 0.0% | 0.0% | 0.0% | 0.0% | 0.0 | 0.0 | 0.0 | 0.0 | 0.0 | 0.0
4 | YPHGITDVRPLYSRR [synthetic wild type FVIII 15 mer peptide, region of ns-SNP R484H] | 4.8% | 0.1% | 0.1% | 46.7% | 0.4% | 0.1% | 5.2 | 0.0 | 0.1 | 1.2 | 0.5 | 0.1
5 | PRCLTRYYSSFVNME [synthetic wild type FVIII 15 mer peptide] | 0.9% | 9.6% | 0.0% | 20.5% | 336.9% | 72.3% | 0.1 | 0.7 | 0.0 | 1.2 | 404.2 | 86.8
6 | YTFKHKMVYEDTLTL [synthetic wild type FVIII 15 mer peptide] | 0.8% | 5.0% | 0.0% | 31.6% | 0.9% | 0.0% | 0.0 | 0.5 | 0.0 | 13.7 | 1.1 | 0.1
7 | DVRPLYSRRLPKGVK [synthetic wild type FVIII 15 mer peptide, region of ns-SNP R484H] | 0.1% | 0.2% | 0.2% | 16.9% | 56.2% | 2.4% | 0.2 | 0.0 | 0.2 | 3.0 | 67.4 | 2.8
8 | ASEGAEYDDQTSQRE [synthetic wild type FVIII 15 mer peptide] | 0.0% | 0.0% | 0.0% | 0.0% | 0.0% | 0.0% | 0.0 | 0.0 | 0.0 | 0.0 | 0.0 | 0.0
9 | FSSLYISQFIIMYSL [synthetic wild type FVIII 15 mer peptide] | 0.6% | 1.5% | 0.0% | 0.3% | 23.3% | 0.3% | 0.0 | 0.4 | 0.0 | 0.0 | 28.0 | 0.1
10 | NPPIIARYIRLHPTH [synthetic wild type FVIII 15 mer peptide] | 0.4% | 5.0% | 0.2% | 76.5% | – | 15.2% | 0.0 | 3.1 | 0.2 | 6.3 | 1374.9 | 18.2
11 | EWLQVDFQKTMKVTG [synthetic wild type FVIII 15 mer peptide, region of ns-SNP M2238V] | 57.0% and 65.6% | 26.4% and 28.1% | 0.1% and 0.2% | 157.4% and 152.7% | – | 24.1% and 17.6% | 33.3 and 31.3 | 4.8 and 5.4 | 0.1 and 0.2 | 16.4 and 16.2 | – | 2.3 and 1.6
12 | PKEWLQVDFQKTMKV [synthetic wild type FVIII 15 mer peptide, region of ns-SNP M2238V] | 36.8% and 60.5% | 5.1% and 4.1% | 0.0% | 8.6% and 4.2% | 0.4% and 0.9% | 0.0% | – | 0.3 and 0.2 | 0.0 | 0.3 and 0.2 | – | 0.0
